The molecules below were run against T1, fMet-Leu-Phe receptor (Homo sapiens, UniProt P21462) (assay: formyl peptide receptor binders – dose response (AID 519)).
T1 sequence (P21462 whole entry): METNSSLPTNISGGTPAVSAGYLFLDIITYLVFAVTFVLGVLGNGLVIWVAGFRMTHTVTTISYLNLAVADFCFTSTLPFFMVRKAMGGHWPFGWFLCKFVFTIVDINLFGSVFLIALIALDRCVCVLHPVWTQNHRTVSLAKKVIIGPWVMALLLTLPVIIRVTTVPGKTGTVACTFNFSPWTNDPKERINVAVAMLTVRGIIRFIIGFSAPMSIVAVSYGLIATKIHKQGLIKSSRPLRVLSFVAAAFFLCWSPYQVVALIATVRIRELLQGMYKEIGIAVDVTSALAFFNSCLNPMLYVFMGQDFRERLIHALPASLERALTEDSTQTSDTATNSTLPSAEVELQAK

O=C1C(=O)N(CCN2CCOCC2)C(c2ccccc2)C1C(=O)c1cccs1 (stereo not given) [1-(2-morpholin-4-ylethyl)-4-oxidanyl-2-phenyl-3-thiophen-2-ylcarbonyl-2H-pyrrol-5-one] and Cc1ccc(C(=O)C2C(=O)C(=O)N(CCN3CCOCC3)C2c2cccnc2)cc1 (stereo not given) [(4Z)-4-[(4-methylphenyl)-oxidanyl-methylidene]-1-(2-morpholin-4-ylethyl)-5-pyridin-3-yl-pyrrolidine-2,3-dione] cannot be ordered by IC50: > 66.7 µM for the first, > 66.7 µM for the second.

Going from COCCN1C(=O)C(=O)C(C(=O)c2ccco2)C1c1cccc(Oc2ccccc2)c1 (stereo not given) [3-(furan-2-carbonyl)-4-hydroxy-1-(2-methoxyethyl)-2-(3-phenoxyphenyl)-2H-pyrrol-5-one] to COCCCN1C(=O)C(=O)C(C(=O)c2ccco2)C1c1ccccc1 (stereo not given) [3-(furan-2-carbonyl)-4-hydroxy-1-(3-methoxypropyl)-2-phenyl-2H-pyrrol-5-one], the IC50 falls from 56 µM to 14.5 µM (3.9-fold).

COCCCN1C(=O)C(=O)C(C(=O)c2ccccc2)C1c1ccc2c(c1)OCO2 (stereo not given) [(4E)-5-(1,3-benzodioxol-5-yl)-1-(3-methoxypropyl)-4-[oxidanyl(phenyl)methylidene]pyrrolidine-2,3-dione] and COCCCN1C(=O)C(=O)C(C(=O)c2ccco2)C1c1cccc(Br)c1 (stereo not given) [2-(3-bromophenyl)-3-(furan-2-carbonyl)-4-hydroxy-1-(3-methoxypropyl)-2H-pyrrol-5-one] are within 1.5-fold of each other in IC50: 29.6 µM for the first, 31.2 µM for the second.

Cc1ccc(C)c(C(=O)C2C(=O)C(=O)N(CCCn3ccnc3)C2c2ccncc2)c1 (stereo not given) [(4E)-4-[(2,5-dimethylphenyl)-hydroxy-methylene]-1-(3-imidazol-1-ylpropyl)-5-(4-pyridyl)pyrrolidine-2,3-quinone] and CCOc1cccc(C(=O)C2C(=O)C(=O)N(Cc3ccco3)C2c2ccncc2)c1 (stereo not given) [(4Z)-1-(2-furfuryl)-4-[hydroxy(m-phenetyl)methylene]-5-(4-pyridyl)pyrrolidine-2,3-quinone] cannot be ordered by IC50: > 66.7 µM for the first, > 66.7 µM for the second.

First: COc1ccc(C(=O)C2C(=O)C(=O)N(c3nc(C)c(C)s3)C2c2ccco2)cc1 (stereo not given) [(4Z)-1-(4,5-dimethyl-1,3-thiazol-2-yl)-5-(furan-2-yl)-4-[(4-methoxyphenyl)-oxidanyl-methylidene]pyrrolidine-2,3-dione]
Second: CCOc1ccc(C(=O)C2C(=O)C(=O)N(c3nc(C)c(C)s3)C2c2ccco2)cc1 (stereo not given) [(4Z)-1-(4,5-dimethyl-1,3-thiazol-2-yl)-4-[(4-ethoxyphenyl)-hydroxymethylidene]-5-(furan-2-yl)pyrrolidine-2,3-dione]
The IC50 of the first is higher: > 66.7 µM for the first, 57.7 µM for the second.

First: COCc1cc(C2C(C(=O)c3ccco3)C(=O)C(=O)N2CCOCCO)ccc1O (stereo not given) [3-(furan-2-carbonyl)-4-hydroxy-1-[2-(2-hydroxyethoxy)ethyl]-2-[4-hydroxy-3-(methoxymethyl)phenyl]-2H-pyrrol-5-one]
Second: COc1ccc(CCN2C(=O)C(=O)C(C(=O)c3ccco3)C2c2cccs2)cc1OC (stereo not given) [1-[2-(3,4-Dimethoxy-phenyl)-ethyl]-4-(furan-2-carbonyl)-3-hydroxy-5-thiophen-2-yl-1,5-dihydro-pyrrol-2-one]
The IC50 of the first is 1.6-fold higher: 29.7 µM for the first, 19 µM for the second.

C=C(c1ccc(Br)cc1)c1sc(N2CCCC2)nc1O [(5Z)-5-[1-(4-bromophenyl)ethylidene]-2-(1-pyrrolidinyl)-4-thiazolone] and Cc1cc(N2C(=O)C(=O)C(C(=O)c3ccc(F)cc3)C2c2cccc(Br)c2)no1 (stereo not given) [(4E)-5-(3-bromophenyl)-4-[(4-fluorophenyl)-hydroxy-methylene]-1-(5-methylisoxazol-3-yl)pyrrolidine-2,3-quinone] cannot be ordered by IC50: > 66.7 µM for the first, > 66.7 µM for the second.

Going from C=CCN1C(=O)C2(c3ccccc31)C(C(=O)c1ccc3c(c1)OCCO3)C(=O)C(=O)N2CCCOC (stereo not given) [(4'E)-1-allyl-4'-[2,3-dihydro-1,4-benzodioxin-6-yl(hydroxy)methylene]-1'-(3-methoxypropyl)spiro[indoline-3,5'-pyrrolidine]-2,2',3'-trione] to CCOc1cccc(C(=O)C2C(=O)C(=O)N(CCOC)C2c2ccc(C)o2)c1 (stereo not given) [(4Z)-4-[(3-ethoxyphenyl)-hydroxymethylidene]-1-(2-methoxyethyl)-5-(5-methyl-2-furanyl)pyrrolidine-2,3-dione], the IC50 falls from > 66.7 µM to 13.5 µM.

First: CCOc1ccc(C(=O)C2C(=O)C(=O)N(CC3CCCO3)C2c2ccco2)cc1 (stereo not given) [(4Z)-4-[(4-ethoxyphenyl)-hydroxymethylidene]-5-(2-furanyl)-1-(2-oxolanylmethyl)pyrrolidine-2,3-dione]
Second: CCOc1ccc(C(=O)C2C(=O)C(=O)N(CC3CCCO3)C2c2ccc(C)o2)cc1 (stereo not given) [(4Z)-4-[(4-ethoxyphenyl)-hydroxymethylidene]-5-(5-methyl-2-furanyl)-1-(2-oxolanylmethyl)pyrrolidine-2,3-dione]
The IC50 of the first is 1.5-fold higher: 32 µM for the first, 21.1 µM for the second. The second is the more potent here.

Compared with COC(=O)c1[nH]c(C)c(C(=O)C2C(=O)C(=O)N(CCN3CCOCC3)C2c2cccs2)c1C (stereo not given), COC(=O)c1[nH]c(C)c(C(=O)C2C(=O)C(=O)N(CCN3CCOCC3)C2c2cccnc2)c1C (stereo not given) [4-[(E)-hydroxy-[1-[2-(4-morpholinyl)ethyl]-4,5-dioxo-2-(3-pyridinyl)-3-pyrrolidinylidene]methyl]-3,5-dimethyl-1H-pyrrole-2-carboxylic acid methyl ester] is 4.2-fold higher in IC50: 5 µM for the first, 20.8 µM for the second. The first is the more potent here.

First: COc1cccc(OC)c1C(=O)C(C#N)c1nc2ccccc2[nH]1 (stereo not given) [SMR000024183]
Second: COc1cc(-n2nc(C)c3c2OC(=N)C(C#N)C3c2ccccc2)c(Cl)c(Br)c1O (stereo not given) [6-amino-1-(3-bromo-2-chloro-4-hydroxy-5-methoxyphenyl)-3-methyl-4-phenyl-1,4-dihydropyrano[2,3-c]pyrazole-5-carbonitrile]
The IC50 of the first is higher: > 66.7 µM for the first, 32.5 µM for the second.

Compared with CCCCc1c(O)n(-c2ccccc2)n(-c2ccccc2)c1=O [3,5-Dioxo-1,2-diphenyl-4-n-butylpyrazolidine], Cc1ccc(C(=O)C2C(=O)C(=O)N(Cc3ccccc3)C2c2cccnc2)o1 (stereo not given) [1-benzyl-3-hydroxy-4-[(5-methylfuran-2-yl)carbonyl]-5-(pyridin-3-yl)-2,5-dihydro-1H-pyrrol-2-one] is higher in IC50: 5.3 µM for the first, > 66.7 µM for the second. The first is the more potent here.

Going from O=C1C(=O)N(Cc2ccccc2)C(c2cccnc2)C1C(=O)c1ccco1 (stereo not given) [1-Benzyl-4-(furan-2-carbonyl)-3-hydroxy-5-pyridin-3-yl-1,5-dihydro-pyrrol-2-one] to O=C1C(=O)N(Cc2ccccc2)C(c2ccncc2)C1C(=O)c1ccco1 (stereo not given) [1-Benzyl-4-(furan-2-carbonyl)-3-hydroxy-5-pyridin-4-yl-1,5-dihydro-pyrrol-2-one], the IC50 falls from 30.5 µM to 13.6 µM (2.2-fold).

Going from Cc1ccsc1C1C2C(=O)CC(C)(C)CC2=Nc2ncnn21 (stereo not given) [6,6-dimethyl-9-(3-methyl-2-thienyl)-1,5,7,9-tetrahydro-[1,2,4]triazolo[5,1-b]quinazolin-8-one] to Cc1ccc(C2c3c([nH]c(=S)[nH]c3=O)N=C3CC(C)(C)CC(=O)C32)cc1 (stereo not given) [8,8-dimethyl-5-(4-methylphenyl)-2-sulfanylidene-5,7,9,10-tetrahydro-1H-pyrimido[4,5-b]quinoline-4,6-dione], the IC50 rises from 12.5 µM to 47.9 µM (3.8-fold). The first is the more potent here.

Going from CCOc1cccc(C(=O)C2C(=O)C(=O)N(Cc3cccnc3)C2c2ccco2)c1 (stereo not given) [(4Z)-4-[(3-ethoxyphenyl)-hydroxymethylidene]-5-(2-furanyl)-1-(3-pyridinylmethyl)pyrrolidine-2,3-dione] to COC(=O)c1[nH]c(C)c(C(=O)C2C(=O)C(=O)N(CCCN3CCOCC3)C2c2ccccn2)c1C (stereo not given) [methyl 4-{[4-hydroxy-1-[3-(4-morpholinyl)propyl]-5-oxo-2-(2-pyridinyl)-2,5-dihydro-1H-pyrrol-3-yl]carbonyl}-3,5-dimethyl-1H-pyrrole-2-carboxylate], the IC50 falls from > 66.7 µM to 9.7 µM. The second is the more potent here.

— BindingDB's records for doi:10.7270/Q2J67FB5 (Nmmlsc, 2007)
